Measured values reported in ChEMBL document CHEMBL1201862, “PubChem BioAssay data set” (2004).
Active and inactive are the calls of the source. For most assays here, no stated cut-off is given here; in the data, actives have a measured IC50 and inactives only a lower limit.

Key:
[1] = molecular target: T1, Sentrin-specific protease 6 (Homo sapiens, UniProt Q9GZR1); type: functional;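 further: Luminescence-based dose-response confirmatory assay of SENP6 inhibition, following up an ultra-high-throughput screen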
T1 sequence (Q9GZR1 whole entry): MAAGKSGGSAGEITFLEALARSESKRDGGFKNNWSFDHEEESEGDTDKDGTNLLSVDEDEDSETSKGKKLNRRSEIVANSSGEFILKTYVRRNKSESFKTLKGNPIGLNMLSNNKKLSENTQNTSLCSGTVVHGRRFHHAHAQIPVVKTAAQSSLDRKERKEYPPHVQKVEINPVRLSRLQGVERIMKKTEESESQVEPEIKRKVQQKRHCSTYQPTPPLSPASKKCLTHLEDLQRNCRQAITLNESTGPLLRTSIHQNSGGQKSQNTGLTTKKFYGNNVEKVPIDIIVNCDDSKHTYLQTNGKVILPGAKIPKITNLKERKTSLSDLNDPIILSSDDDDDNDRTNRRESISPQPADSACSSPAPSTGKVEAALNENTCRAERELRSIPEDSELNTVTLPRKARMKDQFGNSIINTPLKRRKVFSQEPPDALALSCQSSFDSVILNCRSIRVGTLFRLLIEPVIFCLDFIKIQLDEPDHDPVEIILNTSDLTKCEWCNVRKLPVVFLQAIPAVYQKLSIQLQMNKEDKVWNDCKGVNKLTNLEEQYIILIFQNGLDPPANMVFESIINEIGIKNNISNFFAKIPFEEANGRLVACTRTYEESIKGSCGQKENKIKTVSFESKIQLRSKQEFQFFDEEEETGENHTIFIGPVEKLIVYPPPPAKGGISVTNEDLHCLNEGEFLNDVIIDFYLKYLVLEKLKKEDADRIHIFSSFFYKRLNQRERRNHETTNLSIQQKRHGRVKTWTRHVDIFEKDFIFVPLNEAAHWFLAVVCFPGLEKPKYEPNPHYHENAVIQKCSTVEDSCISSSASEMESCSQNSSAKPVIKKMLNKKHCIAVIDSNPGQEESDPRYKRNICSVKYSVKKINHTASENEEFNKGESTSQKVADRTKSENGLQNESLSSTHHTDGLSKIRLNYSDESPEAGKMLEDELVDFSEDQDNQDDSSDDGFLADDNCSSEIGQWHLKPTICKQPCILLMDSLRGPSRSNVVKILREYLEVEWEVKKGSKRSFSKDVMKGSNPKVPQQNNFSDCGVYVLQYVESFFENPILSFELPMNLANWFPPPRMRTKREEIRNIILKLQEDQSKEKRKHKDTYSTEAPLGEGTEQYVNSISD

[2] = molecular target: T2, Sentrin-specific protease 7 (Homo sapiens, UniProt Q9BQF6); type: functional;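 further: Luminescence-based dose-response confirmation of ultra-high-throughput screening hits, measuring inhibition of SENP7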
T2 sequence (Q9BQF6 whole entry): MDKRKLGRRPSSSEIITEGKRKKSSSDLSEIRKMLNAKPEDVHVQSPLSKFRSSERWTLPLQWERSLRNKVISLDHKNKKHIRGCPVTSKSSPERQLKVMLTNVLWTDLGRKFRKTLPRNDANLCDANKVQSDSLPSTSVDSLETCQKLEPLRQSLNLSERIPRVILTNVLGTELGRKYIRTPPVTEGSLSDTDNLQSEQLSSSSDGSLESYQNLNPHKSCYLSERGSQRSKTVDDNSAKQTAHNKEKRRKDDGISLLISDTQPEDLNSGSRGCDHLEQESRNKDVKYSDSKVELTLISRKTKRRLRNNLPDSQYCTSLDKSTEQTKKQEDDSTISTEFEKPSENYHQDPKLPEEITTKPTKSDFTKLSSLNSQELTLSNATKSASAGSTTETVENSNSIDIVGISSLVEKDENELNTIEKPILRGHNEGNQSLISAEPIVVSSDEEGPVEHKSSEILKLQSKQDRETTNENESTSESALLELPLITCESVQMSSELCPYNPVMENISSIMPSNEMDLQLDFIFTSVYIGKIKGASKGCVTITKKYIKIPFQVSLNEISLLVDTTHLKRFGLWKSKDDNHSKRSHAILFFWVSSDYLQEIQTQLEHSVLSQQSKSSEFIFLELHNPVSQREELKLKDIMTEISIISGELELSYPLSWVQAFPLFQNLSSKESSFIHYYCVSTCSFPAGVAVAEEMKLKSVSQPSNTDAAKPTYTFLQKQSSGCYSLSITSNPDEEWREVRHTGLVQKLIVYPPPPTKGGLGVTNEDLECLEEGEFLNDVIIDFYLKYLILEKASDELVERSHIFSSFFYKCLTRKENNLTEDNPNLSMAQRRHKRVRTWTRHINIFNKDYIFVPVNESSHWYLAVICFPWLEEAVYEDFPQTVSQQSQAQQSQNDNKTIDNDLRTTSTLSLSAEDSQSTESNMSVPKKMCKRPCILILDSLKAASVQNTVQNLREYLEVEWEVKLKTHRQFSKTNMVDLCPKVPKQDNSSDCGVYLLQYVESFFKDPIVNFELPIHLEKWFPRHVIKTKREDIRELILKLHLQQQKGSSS

Caspase-3 = molecular target: T3, Caspase-3 (Homo sapiens, UniProt P42574); type: functional;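 further: Dose-response selectivity test against caspase-3 for candidate inhibitors of sentrin-specific proteases (SENPs)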
T3 sequence (P42574 whole entry): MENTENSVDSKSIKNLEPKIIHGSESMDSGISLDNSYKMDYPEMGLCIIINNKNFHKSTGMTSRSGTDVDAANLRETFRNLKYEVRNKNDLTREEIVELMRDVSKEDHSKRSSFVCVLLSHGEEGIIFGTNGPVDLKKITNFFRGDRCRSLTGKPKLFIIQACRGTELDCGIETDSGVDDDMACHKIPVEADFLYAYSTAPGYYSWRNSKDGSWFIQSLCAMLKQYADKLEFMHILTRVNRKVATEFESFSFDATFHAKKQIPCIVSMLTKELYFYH

[3] = molecular target: T4, Sentrin-specific protease 8 (Homo sapiens, UniProt Q96LD8); type: functional;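 further: luminescence read-out of SENP8 inhibition, dose-response confirmation following an ultra-high-throughput screen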
T4 sequence (Q96LD8 whole entry): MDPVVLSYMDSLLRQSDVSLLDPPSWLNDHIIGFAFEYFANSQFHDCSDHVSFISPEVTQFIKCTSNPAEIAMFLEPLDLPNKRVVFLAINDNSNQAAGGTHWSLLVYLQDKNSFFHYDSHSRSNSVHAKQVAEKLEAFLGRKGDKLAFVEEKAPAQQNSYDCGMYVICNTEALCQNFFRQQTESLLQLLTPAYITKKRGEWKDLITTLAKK

[4] = molecular target: T5, Corticotropin-releasing factor receptor 2/Corticotropin-releasing factor-binding protein (Homo sapiens, UniProt P24387+Q13324); assay: activators of CRF receptor 2 with binding protein – uHTS hits, confirmation (AID 602473); type: functional; settings: read-out: EC50_Mean
T5 sequence (Q13324 whole entry): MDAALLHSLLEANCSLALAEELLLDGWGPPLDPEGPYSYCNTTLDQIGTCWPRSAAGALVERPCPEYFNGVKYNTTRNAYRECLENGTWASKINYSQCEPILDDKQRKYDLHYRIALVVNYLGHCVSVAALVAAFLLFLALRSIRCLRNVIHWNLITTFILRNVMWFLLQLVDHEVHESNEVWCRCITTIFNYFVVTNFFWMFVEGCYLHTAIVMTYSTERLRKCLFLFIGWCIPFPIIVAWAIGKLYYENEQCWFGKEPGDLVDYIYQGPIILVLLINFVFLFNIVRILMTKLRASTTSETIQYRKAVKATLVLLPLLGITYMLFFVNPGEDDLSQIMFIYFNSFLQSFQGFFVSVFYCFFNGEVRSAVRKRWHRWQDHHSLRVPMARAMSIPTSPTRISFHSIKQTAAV
T5 sequence (P24387 whole entry): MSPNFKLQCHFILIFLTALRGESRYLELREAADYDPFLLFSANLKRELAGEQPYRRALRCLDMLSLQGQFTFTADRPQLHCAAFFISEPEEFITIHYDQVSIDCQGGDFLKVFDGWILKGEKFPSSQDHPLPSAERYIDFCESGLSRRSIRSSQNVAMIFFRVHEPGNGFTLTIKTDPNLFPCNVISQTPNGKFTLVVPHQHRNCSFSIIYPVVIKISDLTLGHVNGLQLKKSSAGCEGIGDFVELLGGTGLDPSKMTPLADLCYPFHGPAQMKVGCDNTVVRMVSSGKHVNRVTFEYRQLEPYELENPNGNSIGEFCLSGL

[5] = molecular target: T5, Corticotropin-releasing factor receptor 2/Corticotropin-releasing factor-binding protein; assay: Dose Response confirmation of uHTS hits for small molecule antagonists of the CRF-binding protein and CRF-R2 receptor complex.; type: functional; settings: read-out: IC50_Mean
Cytochrome P450 2D6 = Cytochrome P450 2D6 (Homo sapiens, UniProt P10635);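 further: CYP2D6 member of a cytochrome P450 panel assay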
Cytochrome P450 2D6, sequence (P10635 whole entry): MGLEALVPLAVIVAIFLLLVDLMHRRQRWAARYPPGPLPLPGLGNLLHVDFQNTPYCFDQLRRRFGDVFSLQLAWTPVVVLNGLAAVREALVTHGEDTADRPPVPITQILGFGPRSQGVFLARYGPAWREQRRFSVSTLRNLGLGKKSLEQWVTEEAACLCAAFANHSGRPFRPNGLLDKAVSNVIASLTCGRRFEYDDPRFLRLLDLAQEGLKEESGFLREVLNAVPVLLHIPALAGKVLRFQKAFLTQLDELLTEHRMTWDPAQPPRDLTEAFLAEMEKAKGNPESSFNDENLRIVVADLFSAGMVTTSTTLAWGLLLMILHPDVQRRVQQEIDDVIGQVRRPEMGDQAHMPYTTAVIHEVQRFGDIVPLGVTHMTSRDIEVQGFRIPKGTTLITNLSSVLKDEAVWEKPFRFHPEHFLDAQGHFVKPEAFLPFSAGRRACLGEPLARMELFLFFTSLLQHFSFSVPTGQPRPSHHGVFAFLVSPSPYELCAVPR

Cytochrome P450 2C9 = Cytochrome P450 2C9 (Homo sapiens, UniProt P11712)
Cytochrome P450 2C9, sequence (P11712 whole entry): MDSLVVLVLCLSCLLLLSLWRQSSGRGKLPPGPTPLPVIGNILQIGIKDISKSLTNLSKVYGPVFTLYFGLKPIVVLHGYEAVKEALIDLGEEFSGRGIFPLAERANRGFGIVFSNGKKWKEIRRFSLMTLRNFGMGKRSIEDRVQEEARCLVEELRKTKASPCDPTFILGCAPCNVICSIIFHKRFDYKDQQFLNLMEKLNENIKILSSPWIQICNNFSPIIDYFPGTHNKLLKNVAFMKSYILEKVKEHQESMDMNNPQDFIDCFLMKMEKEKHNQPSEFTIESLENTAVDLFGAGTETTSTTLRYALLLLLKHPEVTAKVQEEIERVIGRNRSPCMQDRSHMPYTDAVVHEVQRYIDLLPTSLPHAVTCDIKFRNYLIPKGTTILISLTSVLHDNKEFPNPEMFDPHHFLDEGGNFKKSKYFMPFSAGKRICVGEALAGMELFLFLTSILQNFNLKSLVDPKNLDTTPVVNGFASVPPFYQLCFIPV

[6] = molecular target: T6, Heat shock factor protein 1 (Mus musculus, UniProt P38532); assay: HSF1 potentiators in luciferase reporter cells, confirmation, cell-based, NIH3T3, luminescence, dose retest (AID 435004); type: functional;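 further: stress induced by proteasome inhibitor MG132 added 30 min after compound; luciferase reporter driven by HSF1 response element in NIH3T3 cells; actives raise luminescence as potentiators of the MG132 stress response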
T6 sequence (P38532 whole entry): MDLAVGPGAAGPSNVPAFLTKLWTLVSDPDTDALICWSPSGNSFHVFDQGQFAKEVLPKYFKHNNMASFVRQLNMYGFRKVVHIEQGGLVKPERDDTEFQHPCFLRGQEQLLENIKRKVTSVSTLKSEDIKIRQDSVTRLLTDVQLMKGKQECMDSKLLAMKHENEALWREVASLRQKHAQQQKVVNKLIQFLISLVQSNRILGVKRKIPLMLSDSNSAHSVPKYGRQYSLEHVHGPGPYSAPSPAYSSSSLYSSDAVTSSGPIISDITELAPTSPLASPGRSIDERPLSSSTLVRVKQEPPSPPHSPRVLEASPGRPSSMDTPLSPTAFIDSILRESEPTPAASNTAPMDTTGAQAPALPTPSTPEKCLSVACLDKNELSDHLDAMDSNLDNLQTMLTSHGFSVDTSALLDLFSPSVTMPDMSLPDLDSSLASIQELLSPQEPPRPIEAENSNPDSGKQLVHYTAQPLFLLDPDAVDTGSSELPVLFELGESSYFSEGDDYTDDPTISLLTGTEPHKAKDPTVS

In the case of `COc1ccc(C(=O)O/N=C(\N)c2ccc(OC)c(OC)c2)cc1`, the IC50 [1] is reported as 11.5 µM (active), the IC50 [2] is reported as 8.96 µM (active) and the IC50 (Caspase-3) is reported as 13.3 µM (active). For the same compound, the IC50 [3] was 11.5 µM (active).
For `COc1ccc(-c2cc(-c3cc(C)ccc3O)n[nH]2)cc1`, the IC50 [1] was 10.3 µM (active), the IC50 [2] was 4.46 µM (active) and the IC50 (Caspase-3) was 44.2 µM (active). The IC50 [3] was 9.6 µM (active).
`CC(=O)c1c(C)oc2ccc(OCc3ccccc3)cc12` was tested, and the IC50 [1] was 45.3 µM (active), the IC50 [2] was 11.4 µM (active) and the IC50 (Caspase-3) was 39 µM (active). For the same compound, the IC50 [3] was 75.8 µM (active).
In the case of `O=C(Nc1cccs1)Nc1ccc(Br)cc1F`, the IC50 [1] is reported as 86.7 µM (active), the IC50 [2] is reported as 11.4 µM (active) and the IC50 (Caspase-3) is reported as 45.8 µM (active). The IC50 [3] was > 100 µM (inactive).
`COC(=O)c1sccc1NC(=O)Cc1ccc(Br)cc1` was tested, and the IC50 [1] was 20.3 µM (active), the IC50 [2] was 7.65 µM (active) and the IC50 (Caspase-3) was 17.9 µM (active). The IC50 [3] was 24.8 µM (active).
In the case of `O=c1oc(-c2ccco2)nc2sc3c(c12)CCCC3`, the EC50 [4] is reported as > 53 µM (inactive), the IC50 [1] is reported as 35.1 µM (active) and the IC50 [5] is reported as > 47.1 µM (inactive). The IC50 [2] was 5.4 µM (active), the IC50 (Caspase-3) was 41.7 µM (active) and the IC50 [3] was > 100 µM (inactive).
With `O=C(Nc1ccc(Cl)cn1)c1ccc(Oc2ccccc2)cc1` the IC50 [1] was 3.22 µM (active), the IC50 [2] was 2.3 µM (active) and the IC50 (Caspase-3) was 5.66 µM (active). The IC50 [3] was 3.37 µM (active).
In the case of `Cc1cc(C)nc(NC(=O)/C=C/c2ccc(Cl)cc2Cl)c1`, the AC50 (Cytochrome P450 2D6) is reported as 20 µM (inconclusive), the IC50 [1] is reported as 3.51 µM (active) and the AC50 (Cytochrome P450 2C9) is reported as “inconclusive”. The IC50 [2] was 3.39 µM (active), the IC50 (Caspase-3) was 14.1 µM (active) and the IC50 [3] was 3.93 µM (active).
In the case of `COc1ccc(/N=C(\C)C2=C(O)c3ccccc3C2=O)cc1`, the IC50 [1] is reported as 5.08 µM (active), the EC50 [6] is reported as > 260 µM (inactive) and the IC50 [2] is reported as 1.99 µM (active). For the same compound, the IC50 (Caspase-3) was 4.38 µM (active) and the IC50 [3] was 6.43 µM (active).
`O=C(O/N=C1\CCCc2ccccc21)c1ccc(F)cc1` was tested, and the IC50 [1] was 2.34 µM (active), the IC50 [2] was 2.15 µM (active) and the IC50 (Caspase-3) was 2.23 µM (active). For the same compound, the IC50 [3] was 2.09 µM (active).
